In the assay the test system is Aβ42 production in H4 cells stably transfected with APP751 containing the Swedish mutation (H4 APP751 SWE clone 8.20). In words: Cellular assay for inhibition of Aβ1-42 production (H4 APP751 SWE clone 8.20). The class given is cell-based. The settings on record: H4 APP751 SWE clone 8.20 cells, 19 h incubation. Here is the method: Cellular Assays for Inhibition of Aβ1-40 and Aβ1-42 Production
H4 cells stably transfected with APP751 containing the Swedish mutation (H4 APP751 SWE clone 8.20, developed at BMS) were maintained in log phase through twice weekly passage at a 1:20 split. […] Following incubation for 19 h in 5% CO2 at 37° C., plates were briefly centrifuged (1000 rpm, 5 min). A 10 μl aliquot from each well was transferred to a second assay plate (Costar 3709) for Aβ40 measurements. Antibody cocktails were freshly prepared by dilution into 40 mM Tris-HCl (pH 7.4) with 0.2% BSA and added to assay plates. For Aβ42 measurements, antibodies specific for the Aβ42 neoepitope (565, developed at BMS; conjugated to the Wallac reagent (Perkin Elmer)) and the N-terminal sequence of Aβ peptide (26D6, developed at SIBIA; conjugated to APC (Perkin Elmer)) were mixed and 20 μl of the mixture was added to each well of the incubated cell plate yielding a final concentration of 0.8 ng/well 565 and 75 ng/well 26D6. For the Aβ40 measurements, antibodies specific for the Aβ40 neoepitope (TSD, developed at BMS; conjugated to the Wallac reagent (Perkin Elmer)) and 26D6 as described above were mixed and 20 μl of the mixture was added to the 10 μl aliquots which had been removed previously from the cell plate yielding a final concentration of 1.6 ng/well TSD and 17.5 ng/well 26D6. Assay plates containing antibodies were sealed with aluminum foil and incubated overnight at 4° C. Signal was determined using a Viewlux counter (Perkin Elmer) and IC50 values determined using curve fitting in CurveMaster (Excel Fit based).

[1] abbreviates: Table 5B, 6-heterocyclic thiazine examples.
Setting [2] is: Table 5A, 6-alkyl and 6-substituted phenyl thiazine examples.

The values below come from patent publication US9475784B2, “4,6-diarylaminothiazines as BACE1 inhibitors and their use for the reduction of beta-amyloid production” (BRISTOL-MYERS SQUIBB COMPANY, priority 2012, dated 2016).

Counter-ions that a name gives are not always drawn.

One may read the IC50 as the concentration at which inhibition is half-maximal. Higher therefore signals weaker potency. Under setting [1], `Cc1c([C@@H]2C[C@@H](c3cccc(-c4cncnc4)c3)N=C(N)S2)cnn1C` (racemic) [Example 25, (±)-6-(1,5-dimethyl-1H-pyrazol-4-yl)-4-(3-(pyrimidin-5-yl)phenyl)-5,6-dihydro-4H-1,3-thiazin-2-amine•TFA] showed an IC50 of 3400 nM.
Regarding `NC1=N[C@H](c2cccc(-c3cncnc3)c2)C[C@@H](c2ccc(Cl)cc2)S1` (racemic) [Example 14, (±)-6-(4-chlorophenyl)-4-(3-(pyrimidin-5-yl)phenyl)-5,6-dihydro-4H-1,3-thiazin-2-amine•TFA], under setting [2], the midpoint of inhibition, the IC50, lay at 2700 nM.
`Cc1noc(C)c1[C@@H]1C[C@@](C)(c2cc(-c3cnc(F)nc3)c(F)cc2F)N=C(N)S1` [Example 46, (4S,6S)-4-(2,4-difluoro-5-(2-fluoropyrimidin-5-yl)phenyl)-6-(3,5-dimethylisoxazol-4-yl)-4-methyl-5,6-dihydro-4H-1,3-thiazin-2-amine]: under setting [1], the IC50 turned out to be 390 nM.
`COc1ccc([C@@H]2C[C@@H](c3ccc(F)c(-c4cncnc4)c3)N=C(N)S2)cc1OC` (racemic) [Example 7, (±)-6-(3,4-dimethoxyphenyl)-4-(4-fluoro-3-(pyrimidin-5-yl)phenyl)-5,6-dihydro-4H-1,3-thiazin-2-amine] had an IC50 under setting [2] of 1700 nM.
`CC[C@@]1(c2ccc(F)cc2F)C[C@@H](c2c(C)noc2C)SC(N)=N1` [Example 51, (4S,6S)-4-(2,4-difluorophenyl)-6-(3,5-dimethylisoxazol-4-yl)-4-ethyl-5,6-dihydro-4H-1,3-thiazin-2-amine] had an IC50 under setting [1] of 1300 nM.
Regarding `NC1=N[C@H](c2cccc(-c3cncnc3)c2)C[C@@H](c2cccnc2)S1` (racemic) [Example 20, (±)-6-(pyridin-3-yl)-4-(3-(pyrimidin-5-yl)phenyl)-5,6-dihydro-4H-1,3-thiazin-2-amine•TFA], under setting [1], the IC50 came to 7800 nM.
On to `Cn1cc([C@@H]2C[C@@H](c3cccc(-c4cncnc4)c3)N=C(N)S2)cn1` (racemic) [Example 27, (±)-6-(1-methyl-1H-pyrazol-4-yl)-4-(3-(pyrimidin-5-yl)phenyl)-5,6-dihydro-4H-1,3-thiazin-2-amine•TFA], for which 2600 nM corresponded to half-maximal inhibition under setting [1] (IC50).
Take `N#Cc1ccc([C@@H]2C[C@@H](c3cccc(-c4cncnc4)c3)N=C(N)S2)cc1` (racemic) [Example 12, 4-((±)-2-amino-4-(3-(pyrimidin-5-yl)phenyl)-5,6-dihydro-4H-1,3-thiazin-6-yl)benzonitrile]: the IC50 under setting [2] stood at 1800 nM.
Compound `COc1ncc(-c2cc([C@]3(C)C[C@@H](c4c(C)noc4C)SC(N)=N3)c(F)cc2F)cn1` [Example 58, (4S,6S)-4-(2,4-difluoro-5-(2-methoxypyrimidin-5-yl)phenyl)-6-(3,5-dimethylisoxazol-4-yl)-4-methyl-5,6-dihydro-4H-1,3-thiazin-2-amine] came in with an IC50 under setting [1] of 120 nM.
Consider `COc1cccc([C@@H]2C[C@@H](c3cccc(-c4cncnc4)c3)N=C(N)S2)c1` (racemic) [Example 15, (±)-6-(3-methoxyphenyl)-4-(3-(pyrimidin-5-yl)phenyl)-5,6-dihydro-4H-1,3-thiazin-2-amine•TFA], for which, under setting [2], the midpoint of inhibition, the IC50, lay at 2800 nM.
As to `Cc1noc(C)c1[C@@H]1C[C@@](C)(c2cc(-c3cnccc3C(F)(F)F)c(F)cc2F)N=C(N)S1` [Example 59, (4S,6S)-4-(2,4-difluoro-5-(4-(trifluoromethyl)pyridin-3-yl)phenyl)-6-(3,5-dimethylisoxazol-4-yl)-4-methyl-5,6-dihydro-4H-1,3-thiazin-2-amine], 670 nM corresponded to half-maximal inhibition under setting [1] (IC50).
In turn, `CC#Cc1cncc(-c2cc([C@@H]3C[C@@H](c4ccc(OC)c(OC)c4)SC(N)=N3)c(F)cc2F)c1` (racemic) [Example 32, (±)-4-(2,4-difluoro-5-(5-(prop-1-ynyl)pyridin-3-yl)phenyl)-6-(3,4-dimethoxyphenyl)-5,6-dihydro-4H-1,3-thiazin-2-amine] registered an IC50 under setting [2] of 1000 nM.
Turning to `COc1ccc([C@@H]2C[C@@H](c3cc(-c4cncnc4)c(F)cc3F)N=C(N)S2)cc1OC` (single isomer, unassigned) [Example 1A], the 50% inhibitory concentration (IC50) under setting [2] stood at 290 nM.
Take `Cc1noc(C)c1[C@@H]1C[C@@H](c2cccc(-c3cncnc3)c2)N=C(N)S1` (racemic) [Example 19, (±)-6-(3,5-dimethylisoxazol-4-yl)-4-(3-(pyrimidin-5-yl)phenyl)-5,6-dihydro-4H-1,3-thiazin-2-amine•TFA]: the IC50 under setting [1] worked out at 230 nM.
In turn, `COc1ccc([C@]23CCCCC2[C@@H](c2cccc(-c4cncnc4)c2)N=C(N)S3)cc1` (mixture of isomers) [Example 17, (±)-8a-(4-methoxyphenyl)-4-(3-(pyrimidin-5-yl)phenyl)-4a,5,6,7,8,8a-hexahydro-4H-benzo[e][1,3]thiazin-2-amine•TFA] gave an IC50 under setting [2] of 3300 nM.
For `Cc1noc(C)c1[C@]1(C)C[C@@H](c2cc(-c3cncnc3)c(F)cc2F)N=C(N)S1` (racemic) [Example 34, (±)-4-(2,4-difluoro-5-(pyrimidin-5-yl)phenyl)-6-(3,5-dimethylisoxazol-4-yl)-6-methyl-5,6-dihydro-4H-1,3-thiazin-2-amine•TFA], 2700 nM corresponded to half-maximal inhibition under setting [1] (IC50).
Consider `COc1ccc([C@@H]2C[C@@H](c3cccc(-c4cccc(C#N)c4)c3)N=C(N)S2)cc1OC` (racemic) [Example 31, 3′-((±)-2-amino-6-(3,4-dimethoxyphenyl)-5,6-dihydro-4H-1,3-thiazin-4-yl)biphenyl-3-carbonitrile], for which, under setting [2], 8900 nM corresponded to half-maximal inhibition (IC50).
`CC(=O)c1cc([C@]2(C)C[C@@H](c3c(C)noc3C)SC(N)=N2)c(F)cc1F` [Example 47, 1-(5-((4S,6S)-2-amino-6-(3,5-dimethylisoxazol-4-yl)-4-methyl-5,6-dihydro-4H-1,3-thiazin-4-yl)-2,4-difluorophenyl)ethanone] registered an IC50 under setting [1] of 220 nM.
In turn, `NC1=N[C@H](c2cccc(-c3cncnc3)c2)C[C@@H](c2ccccc2)S1` (racemic) [Example 2, (±)-6-phenyl-4-(3-(pyrimidin-5-yl)phenyl)-5,6-dihydro-4H-1,3-thiazin-2-amine] showed an IC50 under setting [2] of 4100 nM.
Under setting [1], `Cc1noc(C)c1[C@@H]1C[C@@](C)(c2cc(-c3cncnc3)c(F)cc2F)N=C(N)S1` [Example 39, (4S,6S)-4-(2,4-difluoro-5-(pyrimidin-5-yl)phenyl)-6-(3,5-dimethylisoxazol-4-yl)-4-methyl-5,6-dihydro-4H-1,3-thiazin-2-amine] had an IC50 of 8 nM.
On the same count and under the same terms, under `Cc1ncsc1[C@@H]1C[C@@H](c2cccc(-c3cncnc3)c2)N=C(N)S1` (racemic) [Example 24, (±)-6-(4-methylthiazol-5-yl)-4-(3-(pyrimidin-5-yl)phenyl)-5,6-dihydro-4H-1,3-thiazin-2-amine•TFA] stands 1000 nM; under `Cc1noc(C)c1[C@@H]1C[C@@H](c2cc(-c3cncnc3)c(F)cc2F)N=C(N)S1` (single isomer, unassigned) [Example 29A], 60 nM.
On the same count and under the same terms, the value for `NC1=N[C@H](c2cccc(-c3cncnc3)c2)C[C@@H](c2ccccn2)S1` (racemic) [Example 22, (±)-6-(pyridin-2-yl)-4-(3-(pyrimidin-5-yl)phenyl)-5,6-dihydro-4H-1,3-thiazin-2-amine•TFA] was 2000 nM; that for `Cn1nccc1[C@@H]1C[C@@](C)(c2ccc(F)cc2F)N=C(N)S1` [Example 60, (4S,6S)-4-(2,4-difluorophenyl)-4-methyl-6-(1-methyl-1H-pyrazol-5-yl)-5,6-dihydro-4H-1,3-thiazin-2-amine] was 330 nM.
